Measurements taken from patent US7772180B2, “Hepatitis C virus inhibitors” (Bristol-Myers Squibb Company, priority 2006, dated 2010).
Read-outs that look alike come from different tables or passages of the source.

Experiments:
human liver cathepsin B = biological target: T1, human liver cathepsin B (Homo sapiens, UniProt P07858); assay: Specificity assay, cathepsin B; type: biochemical; settings: read-out: Cathepsin B activity in the specificity assays (IC50)
T1 construct: purchased Sigma, EMDbiosciences; host or cells: human liver
Protocol: (§1) The specificities of compounds of the present disclosure were determined against a variety of serine proteases: human neutrophil elastase (HNE), porcine pancreatic elastase (PPE) and human pancreatic chymotrypsin and one cysteine protease: human liver cathepsin B. In all cases a 96-well plate format protocol using either colorimetric p-nitroaniline (pNA) substrate or fluorometric Amino-Methyl-Coumarin (AMC) specific for each enzyme was used as described previously (PCT Patent Application No. WO 00/09543) with some modifications to the serine protease assays. All enzymes were purchased from Sigma, EMDbiosciences while the substrates were from Bachem, Sigma and EMDbiosciences.
(§2) The pNA assay for Chymotrypsin included a 1 h enzyme-inhibitor pre-incubation at room temperature followed by addition of substrate and hydrolysis to ˜15% conversion as measured on a Spectramax Pro microplate reader. Compound concentrations varied from 100 to 0.4 μM depending on their potency. Cathepsin B, HNE, and PPE assays each was initiated by addition of substrate to enzyme-inhibitor pre-incubated for 10 min at room temperature and hydrolysis to 15% conversion as measured on cytofluor. […]
(§3) The percentage of inhibition was calculated using the formula: [1−((UVinh−UVblank)/(UVctl−UVblank))]×100 […]

[1] = tested on: HCV replicon with Renilla luciferase reporter in HUH-7 cells; assay: HCV replicon luciferase reporter assay; type: cell-based, Hepatitis C virus
Text: An HCV replicon whole cell system was established as described by Lohmann V, Korner F, Koch J, Herian U, Theilmann L, Bartenschlager R., Science 285(5424): 110-3 (1999). This system enabled us to evaluate the effects of our HCV Protease compounds on HCV RNA replication. Briefly, using the HCV strain 1b sequence described in the Lohmann paper (Assession number: AJ238799), an HCV cDNA was synthesized by Operon Technologies, Inc. (Alameda, Calif.), and the full-length replicon was then assembled in plasmid pGem9zf(+) (Promega, Madison, Wis.) using standard molecular biology techniques. The replicon consists of (i) the HCV 5′ UTR fused to the first 12 amino acids of the capsid protein, (ii) the neomycin phosphotransferase gene (neo), (iii) the IRES from encephalomyocarditis virus (EMCV), and (iv) HCV NS3 to NS5B genes and the HCV 3′ UTR. […]
As a secondary assay, EC50 determinations from the replicon FRET assay were confirmed in a replicon luciferase reporter assay. […] Following 4 days in a 37° C./5% CO2 incubator, cells were analyzed for Renilla Luciferase activity using the Promega Dual-Glo Luciferase Assay System. […] Plates were read on a Packard TopCount NXT using a luminescence program.
The percentage inhibition was calculated using the formula below: […]
The values were graphed and analyzed using XLfit to obtain the EC50 value.

[2] = biological target: T2, human pancreatic chymotrypsin (Homo sapiens, UniProt P17538); assay: Specificity assay, chymotrypsin; type: biochemical; settings: read-out: Chymotrypsin activity in the specificity assays (IC50)
T2 construct: purchased Sigma, EMDbiosciences
T2 sequence (P17538 19-263): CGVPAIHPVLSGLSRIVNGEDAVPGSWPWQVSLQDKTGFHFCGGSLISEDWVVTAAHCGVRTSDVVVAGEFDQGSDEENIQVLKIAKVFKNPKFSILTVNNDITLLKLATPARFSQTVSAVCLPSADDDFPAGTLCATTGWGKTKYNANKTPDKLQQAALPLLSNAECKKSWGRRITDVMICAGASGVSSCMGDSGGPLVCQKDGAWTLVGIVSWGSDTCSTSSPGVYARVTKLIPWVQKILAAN
Protocol: as §1, §2, §3

[3] = tested on: HCV replicon (strain 1b) in HUH-7 cells; assay: HCV replicon FRET assay; type: cell-based, Hepatitis C virus; settings: Hepatitis C virus

## C=C[C@@H]1C[C@]1(NC(=O)[C@@H]1C[C@@H](Oc2nc(N(C)C)cc3cc(OC)ccc23)CN1C(=O)C(Nc1cc(C)cc(C)n1)C(C)(C)C)C(=O)NS(=O)(=O)C1CC1 (single isomer, unassigned) [Compound 18]
Human liver cathepsin B
  IC50: > 50000 nM
[1]
  EC50: 1.1 nM
[2]
  IC50: > 50000 nM
[3]; Huh-7, read-out: EC50 in the replicon FRET assay, replicon FRET assay
  EC50: 9 nM
[3]; Huh-7, read-out: HCV Pro Replicon (EC50), HCV replicon cell assay, activity range class
  EC50: 3 to 100 nM
